# Test system: MV-4-11 cells
# Experiment: Gene expression microarray analysis (Affymetrix PrimeView) and GSEA
# Assay type: cell-based, human
# Parameters: RFU PODN (11730768_x_at) / Fold change /veh PODN (11730768_x_at) / RFU LINC00158 (11744669_a_at) / Fold change /veh LINC00158 (11744669_a_at) / RFU DUSP10 (11751237_a_at) / Fold change /veh DUSP10 (11751237_a_at) / RFU ID3 (11757404_x_at) / Fold change /veh ID3 (11757404_x_at) / RFU PLEKHG5 (11737974_s_at) / Fold change /veh PLEKHG5 (11737974_s_at) / RFU LRRC4B (11730491_at) / Fold change /veh LRRC4B (11730491_at) / RFU GIMAP4 (11747438_a_at) / Fold change /veh GIMAP4 (11747438_a_at) / RFU KRT8 (11758183_x_at) / Fold change /veh KRT8 (11758183_x_at) / RFU CNN1 (11734310_a_at) / Fold change /veh CNN1 (11734310_a_at) / RFU VPS37D (11726825_at) / Fold change /veh VPS37D (11726825_at) / RFU C10orf10 (11716522_x_at) / Fold change /veh C10orf10 (11716522_x_at) / RFU KIR2DL2 /// KIR2DL4 /// KIR2DL5A /// KIR2DL5B /// KIR2DS1 /// KIR2DS2 /// KIR2DS3 /// KIR2DS4 /// KIR3DL3 /// KIR3DL3 /// KIR3DS1 (11738374_at) / Fold change /veh KIR2DL2 /// KIR2DL4 /// KIR2DL5A /// KIR2DL5B /// KIR2DS1 /// KIR2DS2 /// KIR2DS3 /// KIR2DS4 /// KIR3DL3 /// KIR3DL3 /// KIR3DS1 (11738374_at) / RFU C1QL1 (11718748_at) / Fold change /veh C1QL1 (11718748_at) / RFU TMPRSS4 (11747572_a_at) / Fold change /veh TMPRSS4 (11747572_a_at) / RFU HAMP (11756126_x_at) / Fold change /veh HAMP (11756126_x_at) / RFU RNFT2 (11725882_a_at) / Fold change /veh RNFT2 (11725882_a_at) / RFU NR4A2 (11747474_a_at) / Fold change /veh NR4A2 (11747474_a_at) / RFU ABCC12 (11746883_a_at) / Fold change /veh ABCC12 (11746883_a_at) / RFU TMEM136 (11760407_x_at) / Fold change /veh TMEM136 (11760407_x_at) / RFU CLDN22 /// WWC2 (11732394_at) / Fold change /veh CLDN22 /// WWC2 (11732394_at) / RFU HLA-DPB1 (11760878_x_at) / Fold change /veh HLA-DPB1 (11760878_x_at) / RFU SPINT1 (11716480_a_at) / Fold change /veh SPINT1 (11716480_a_at) / RFU GAP43 (11754022_s_at) / Fold change /veh GAP43 (11754022_s_at) / RFU A4GNT (11735810_at) / Fold change /veh A4GNT (11735810_at) / RFU PRB3 (11715151_x_at) / Fold change /veh PRB3 (11715151_x_at) / RFU TUBB4B (11761932_at) / Fold change /veh TUBB4B (11761932_at) / RFU CAPN14 (11732068_a_at) / Fold change /veh CAPN14 (11732068_a_at) / RFU TMCC2 (11721928_a_at) / Fold change /veh TMCC2 (11721928_a_at) / RFU IRGQ (11745062_a_at) / Fold change /veh IRGQ (11745062_a_at) / RFU FAM174B (11720279_a_at) / Fold change /veh FAM174B (11720279_a_at) / RFU TMPRSS4 (11748680_a_at) / Fold change /veh TMPRSS4 (11748680_a_at) / RFU FAM212B (11763350_a_at) / Fold change /veh FAM212B (11763350_a_at) / RFU PLEKHG5 (11743358_a_at) / Fold change /veh PLEKHG5 (11743358_a_at) / RFU ZSCAN30 (11745921_a_at) / Fold change /veh ZSCAN30 (11745921_a_at) / RFU CMKLR1 (11741424_a_at) / Fold change /veh CMKLR1 (11741424_a_at) / RFU LOC101060620 /// MAPK8IP1 (11723275_at) / Fold change /veh LOC101060620 /// MAPK8IP1 (11723275_at) / RFU SPTSSB (11747773_x_at) / Fold change /veh SPTSSB (11747773_x_at) / RFU PRSS12 (11739890_at) / Fold change /veh PRSS12 (11739890_at) / RFU BIN1 (11741810_x_at) / Fold change /veh BIN1 (11741810_x_at) / RFU WNT11 (11732464_a_at) / Fold change /veh WNT11 (11732464_a_at) / RFU C10orf10 (11716521_a_at) / Fold change /veh C10orf10 (11716521_a_at) / RFU C5orf56 (11738089_at) / Fold change /veh C5orf56 (11738089_at) / RFU CYB561 (11721691_x_at) / Fold change /veh CYB561 (11721691_x_at) / RFU ANKRD19P (11752326_a_at) / Fold change /veh ANKRD19P (11752326_a_at) / RFU OR2T12 /// OR2T33 /// OR2T8 (11738714_s_at) / Fold change /veh OR2T12 /// OR2T33 /// OR2T8 (11738714_s_at) / RFU VCAN (11748164_a_at) / Fold change /veh VCAN (11748164_a_at) / RFU JSRP1 (11732532_at) / Fold change /veh JSRP1 (11732532_at) / RFU KRTAP10-11 (11738290_x_at) / Fold change /veh KRTAP10-11 (11738290_x_at) / RFU MYO3A (11730013_a_at) / Fold change /veh MYO3A (11730013_a_at) / RFU EBF3 (11725865_a_at) / Fold change /veh EBF3 (11725865_a_at) / RFU CAMK2N1 (11719241_x_at) / Fold change /veh CAMK2N1 (11719241_x_at) / RFU C5orf56 (11738088_a_at) / Fold change /veh C5orf56 (11738088_a_at) / RFU OLFML3 (11715873_a_at) / Fold change /veh OLFML3 (11715873_a_at) / RFU LOC100653217 /// NTM (11731650_a_at) / Fold change /veh LOC100653217 /// NTM (11731650_a_at) / RFU MAPK11 (11762145_a_at) / Fold change /veh MAPK11 (11762145_a_at) / RFU FIZ1 (11724087_x_at) / Fold change /veh FIZ1 (11724087_x_at) / RFU OASL (11726364_x_at) / Fold change /veh OASL (11726364_x_at) / RFU SOX15 (11748057_x_at) / Fold change /veh SOX15 (11748057_x_at) / RFU CD79A (11719716_a_at) / Fold change /veh CD79A (11719716_a_at) / RFU HIST1H1D (11736915_at) / Fold change /veh HIST1H1D (11736915_at) / RFU CASKIN2 (11723855_a_at) / Fold change /veh CASKIN2 (11723855_a_at) / RFU LOC730098 (11760151_x_at) / Fold change /veh LOC730098 (11760151_x_at) / RFU OR4N2 (11742367_at) / Fold change /veh OR4N2 (11742367_at) / RFU PRRT2 (11749266_a_at) / Fold change /veh PRRT2 (11749266_a_at) / RFU SNX32 (11753110_a_at) / Fold change /veh SNX32 (11753110_a_at) / RFU CDHR5 (11726645_a_at) / Fold change /veh CDHR5 (11726645_a_at) / RFU RCAN1 (11760418_a_at) / Fold change /veh RCAN1 (11760418_a_at) / RFU FAM167A (11723789_a_at) / Fold change /veh FAM167A (11723789_a_at) / RFU FAM26E (11764081_at) / Fold change /veh FAM26E (11764081_at) / RFU ISYNA1 (11749810_s_at) / Fold change /veh ISYNA1 (11749810_s_at) / RFU ACY1 (11761880_at) / Fold change /veh ACY1 (11761880_at) / RFU 11764098_at / Fold change /veh 11764098_at / RFU SAMD14 (11745864_x_at) / Fold change /veh SAMD14 (11745864_x_at) / RFU NPB (11741838_a_at) / Fold change /veh NPB (11741838_a_at) / RFU TMPRSS6 (11731388_a_at) / Fold change /veh TMPRSS6 (11731388_a_at) / RFU KRTAP10-2 (11738614_at) / Fold change /veh KRTAP10-2 (11738614_at) / RFU ARHGAP8 /// PRR5-ARHGAP8 (11727945_x_at) / Fold change /veh ARHGAP8 /// PRR5-ARHGAP8 (11727945_x_at) / RFU KRTAP5-7 /// NADSYN1 (11734609_at) / Fold change /veh KRTAP5-7 /// NADSYN1 (11734609_at) / RFU RASL12 (11751679_a_at) / Fold change /veh RASL12 (11751679_a_at) / RFU CDKN2B (11736163_a_at) / Fold change /veh CDKN2B (11736163_a_at) / RFU PRF1 (11729649_at) / Fold change /veh PRF1 (11729649_at) / RFU, ZNF638 /// ZNF638-IT1 / Fold change vs veh, ZNF638 /// ZNF638-IT1 / RFU, PANK3 / Fold change vs veh, PANK3 / RFU, SH3YL1 / Fold change vs veh, SH3YL1 / RFU, ZEB2 / Fold change vs veh, ZEB2 / RFU, NRIP1 / Fold change vs veh, NRIP1 / RFU, PTTG1IP / Fold change vs veh, PTTG1IP / RFU, CAPN2 / Fold change vs veh, CAPN2 / RFU, MED14 / Fold change vs veh, MED14 / RFU, SNORA58 / Fold change vs veh, SNORA58 / RFU, C1orf63 / Fold change vs veh, C1orf63 / RFU, LRRFIP1 / Fold change vs veh, LRRFIP1 / RFU, NDUFAF7 / Fold change vs veh, NDUFAF7 / RFU, SLC12A2 / Fold change vs veh, SLC12A2 / RFU, IBTK / Fold change vs veh, IBTK / RFU, ESF1 / Fold change vs veh, ESF1 / Fold change vs veh, TMEM50B / RFU, TAOK1 / Fold change vs veh, TAOK1 / RFU, ACBD3 / Fold change vs veh, ACBD3 / RFU, TMA16 / Fold change vs veh, TMA16 / RFU, RWDD3 / Fold change vs veh, RWDD3 / RFU, BCAT1 / Fold change vs veh, BCAT1 / RFU, EDEM3 / Fold change vs veh, EDEM3 / RFU, TMEM33 / Fold change vs veh, TMEM33 / RFU, WDR75 / Fold change vs veh, WDR75 / RFU, AHCTF1 / Fold change vs veh, AHCTF1 / RFU, TFRC / Fold change vs veh, TFRC / RFU, ZDHHC17 / Fold change vs veh, ZDHHC17 / RFU, NOM1 / Fold change vs veh, NOM1 / RFU, ARL8B / Fold change vs veh, ARL8B / RFU, ZBTB11 / Fold change vs veh, ZBTB11 / RFU, TAMM41 / Fold change vs veh, TAMM41 / RFU, KIAA1704 /// LOC100996395 / Fold change vs veh, KIAA1704 /// LOC100996395 / RFU, ING1 / Fold change vs veh, ING1 / RFU, TRMT61B / Fold change vs veh, TRMT61B / RFU, FUBP3 / Fold change vs veh, FUBP3 / RFU, TP53 / Fold change vs veh, TP53 / RFU, TNKS2 / Fold change vs veh, TNKS2 / RFU, ZFP14 / Fold change vs veh, ZFP14 / RFU, ACTR2 / Fold change vs veh, ACTR2 / RFU, PPP3R1 / Fold change vs veh, PPP3R1 / RFU, PIK3R1 / Fold change vs veh, PIK3R1 / RFU, HNRNPA1 / Fold change vs veh, HNRNPA1 / RFU, RNF170 / Fold change vs veh, RNF170 / RFU, ZNF28 / Fold change vs veh, ZNF28 / RFU, RNGTT / Fold change vs veh, RNGTT / RFU, OGT / Fold change vs veh, OGT / RFU, BRD1 / Fold change vs veh, BRD1 / RFU, MARS / Fold change vs veh, MARS / RFU, ZNF655 / Fold change vs veh, ZNF655 / RFU, FAHD1 / Fold change vs veh, FAHD1 / RFU, BDP1 / Fold change vs veh, BDP1 / RFU, LRRCC1 / Fold change vs veh, LRRCC1 / RFU, ARID1A / Fold change vs veh, ARID1A / RFU, ZNF146 / Fold change vs veh, ZNF146 / RFU, ZNF330 / Fold change vs veh, ZNF330 / RFU, GPN3 / Fold change vs veh, GPN3 / RFU, C9orf123 / Fold change vs veh, C9orf123 / RFU, N4BP2L2 / Fold change vs veh, N4BP2L2 / RFU, ARFIP1 / Fold change vs veh, ARFIP1 / RFU, FAM179B / Fold change vs veh, FAM179B / RFU, BCL10 / Fold change vs veh, BCL10 / RFU, UHRF1BP1L / Fold change vs veh, UHRF1BP1L / RFU, BET1 / Fold change vs veh, BET1 / RFU, CNOT2 / Fold change vs veh, CNOT2 / RFU, ZNF268 / Fold change vs veh, ZNF268 / Fold change vs veh, ZNF507 / RFU, DGCR2 / Fold change vs veh, DGCR2 / RFU, WDSUB1 / Fold change vs veh, WDSUB1 / Fold change vs veh, HSP90B1 /// MIR3652 / RFU, ADSS / Fold change vs veh, ADSS / RFU, GK / Fold change vs veh, GK / RFU, ZNF148 / Fold change vs veh, ZNF148 / RFU, TAF9 / Fold change vs veh, TAF9 / RFU, SLC1A5 / Fold change vs veh, SLC1A5 / RFU, SLMO2 / Fold change vs veh, SLMO2 / RFU, ABCC4 / Fold change vs veh, ABCC4 / RFU, LOC101060439 /// RAP1B / Fold change vs veh, LOC101060439 /// RAP1B / RFU, RFX7 / Fold change vs veh, RFX7 / RFU, GTPBP10 / Fold change vs veh, GTPBP10 / RFU, CNEP1R1 / Fold change vs veh, CNEP1R1 / RFU, BIVM-ERCC5 /// ERCC5 / Fold change vs veh, BIVM-ERCC5 /// ERCC5 / RFU, ILF3 / Fold change vs veh, ILF3 / RFU 11762660_at / Fold change /veh 11762660_at / RFU VCAN (11757783_s_at) / Fold change /veh VCAN (11757783_s_at) / RFU DDX43 (11728927_at) / Fold change /veh DDX43 (11728927_at) / RFU KRT8 (11758188_x_at) / Fold change /veh KRT8 (11758188_x_at) / RFU NKD1 (11759106_at) / Fold change /veh NKD1 (11759106_at) / RFU SRD5A1 (11742802_a_at) / Fold change /veh SRD5A1 (11742802_a_at) / RFU TPSAB1 /// TPSB2 (11721975_s_at) / Fold change /veh TPSAB1 /// TPSB2 (11721975_s_at) / RFU GSTM3 (11746129_a_at) / Fold change /veh GSTM3 (11746129_a_at) / RFU IL23R (11737362_x_at) / Fold change /veh IL23R (11737362_x_at) / RFU TMEM51 (11727254_a_at) / Fold change /veh TMEM51 (11727254_a_at) / RFU PIWIL2 (11732686_x_at) / Fold change /veh PIWIL2 (11732686_x_at) / RFU ORM1 (11744905_x_at) / Fold change /veh ORM1 (11744905_x_at) / RFU CCDC152 (11743942_at) / Fold change /veh CCDC152 (11743942_at) / RFU ECM1 (11717891_a_at) / Fold change /veh ECM1 (11717891_a_at) / RFU IL23R (11748794_a_at) / Fold change /veh IL23R (11748794_a_at) / RFU TNFAIP8L3 (11732012_x_at) / Fold change /veh TNFAIP8L3 (11732012_x_at) / RFU MBOAT4 (11741988_at) / Fold change /veh MBOAT4 (11741988_at) / RFU 11764193_at / Fold change /veh 11764193_at / RFU TMEM53 (11763286_at) / Fold change /veh TMEM53 (11763286_at) / RFU MAGEB2 (11727129_at) / Fold change /veh MAGEB2 (11727129_at) / RFU TMEM200A (11744735_a_at) / Fold change /veh TMEM200A (11744735_a_at) / RFU CCDC152 (11751479_a_at) / Fold change /veh CCDC152 (11751479_a_at) / RFU FAM211A (11726209_a_at) / Fold change /veh FAM211A (11726209_a_at) / RFU RGS16 (11746705_a_at) / Fold change /veh RGS16 (11746705_a_at) / RFU VCAN (11755009_s_at) / Fold change /veh VCAN (11755009_s_at) / RFU RHOB (11743442_s_at) / Fold change /veh RHOB (11743442_s_at) / RFU RGS16 (11720943_a_at) / Fold change /veh RGS16 (11720943_a_at) / RFU RGS16 (11720944_at) / Fold change /veh RGS16 (11720944_at) / RFU, VPS4B / Fold change vs veh, VPS4B / RFU, CREB1 / Fold change vs veh, CREB1 / RFU, DNAJC13 / Fold change vs veh, DNAJC13 / RFU, GNAQ / Fold change vs veh, GNAQ / RFU, CDK5R1 / Fold change vs veh, CDK5R1 / RFU, ZRANB3 / Fold change vs veh, ZRANB3 / RFU, CUL4A / Fold change vs veh, CUL4A / RFU, CCNY / Fold change vs veh, CCNY / RFU, UFL1 / Fold change vs veh, UFL1 / RFU, COG3 / Fold change vs veh, COG3 / RFU, DIAPH2 / Fold change vs veh, DIAPH2 / RFU, SKA2 / Fold change vs veh, SKA2 / RFU, AFF3 / Fold change vs veh, AFF3 / RFU, LMF1 / Fold change vs veh, LMF1 / RFU, IPO11 / Fold change vs veh, IPO11 / RFU, DFFB / Fold change vs veh, DFFB / RFU, FOXP1 / Fold change vs veh, FOXP1 / RFU, CARD8 / Fold change vs veh, CARD8 / RFU, STRN3 / Fold change vs veh, STRN3 / RFU, ADK / Fold change vs veh, ADK / RFU, RASSF2 / Fold change vs veh, RASSF2 / RFU, WIPF1 / Fold change vs veh, WIPF1 / RFU, LARP1B / Fold change vs veh, LARP1B / RFU, RASA1 / Fold change vs veh, RASA1 / RFU, RB1 / Fold change vs veh, RB1 / RFU, PPFIA1 / Fold change vs veh, PPFIA1 / RFU, MAT2A / Fold change vs veh, MAT2A / RFU, CCT5 / Fold change vs veh, CCT5 / RFU, WDR92 / Fold change vs veh, WDR92 / RFU, CUX1 / Fold change vs veh, CUX1 / RFU, TTC7A / Fold change vs veh, TTC7A / RFU, TMEM135 / Fold change vs veh, TMEM135 / RFU, DEPTOR / Fold change vs veh, DEPTOR / RFU, CPM / Fold change vs veh, CPM / RFU, DNAJB6 / Fold change vs veh, DNAJB6 / RFU, CACNA2D3 / Fold change vs veh, CACNA2D3 / RFU, DTX4 / Fold change vs veh, DTX4 / RFU, TFCP2 / Fold change vs veh, TFCP2 / RFU, GMCL1 /// GMCL1P1 / Fold change vs veh, GMCL1 /// GMCL1P1 / RFU, AEBP2 / Fold change vs veh, AEBP2 / RFU, SNHG1 /// SNORD22 /// SNORD25 /// SNORD26 /// SNORD27 /// SNORD28 /// SNORD29 /// SNORD31 / Fold change vs veh, SNHG1 /// SNORD22 /// SNORD25 /// SNORD26 /// SNORD27 /// SNORD28 /// SNORD29 /// SNORD31 / Fold change (Aza/veh), C12orf56 (ProbeSet 11735607_a_at) / Fold change (ACY-1035/veh), C12orf56 (ProbeSet 11735607_a_at) / Fold change (Aza/veh), FGFR1OP (ProbeSet 11751329_s_at) / Fold change (ACY-1035/veh), FGFR1OP (ProbeSet 11751329_s_at) / Fold change (Aza/veh), VPS36 (ProbeSet 11739960_a_at) / Fold change (ACY-1035/veh), VPS36 (ProbeSet 11739960_a_at) / RFU SYPL1 (11715823_x_at) / Fold change /veh SYPL1 (11715823_x_at) / RFU IGFBP7 (11715501_s_at) / Fold change /veh IGFBP7 (11715501_s_at) / RFU REEP3 (11722064_at) / Fold change /veh REEP3 (11722064_at) / RFU IGLL1 (11728026_x_at) / Fold change /veh IGLL1 (11728026_x_at): dose or concentration left out as unconfirmed
# Details: ProbeSet 11748670_a_at; LIST B
smiles,measurement,value
Nc1ccc(-c2cccs2)cc1NC(=O)c1ccc2c(c1)cc(C1CC1)n2CCN1CCOCC1 [ACY-1035],"RFU, PIK3R1",70.67 RFU
